Test results reported in patent US10154955B2, “Compositions including bauhinia, methods of making and using the same in skin anti-aging and other skin applications” (ACCESS BUSINESS GROUP INTERNATIONAL LLC, priority 2016, dated 2018).
Converted amounts (≈) assume the structure as drawn. “And” between values parts separate entries of the source, which are not always exact repeats. Equal entries are not always repeated.

What was measured:
[1] = Cell toxicity-CTG in HepG2 cells; assay type: cell-based; conditions: human, FIG. 5
Method: On Day 1 of the procedure, Hep G2 [HEPG2] cells were plated on 96-well cell culture plates. To do so, disk was trypsinized and the cell density was determined. The cell slurry was diluted to the required volume at a density of 625,000 cells/ml. 160 ul/well of the cell slurry was dispensed onto assay plates. (100,000 cells per well). The assay plates were incubated overnight at 37 degrees C., 5% CO2 under humidified conditions. On Day 2, the cells were treated with […] and Hydroquinone or Vitamin C as a reference. 200× compounds were prepared in 100% DMSO. Transfer 5 ul 200× compound was transferred to 95 ul completed medium (MEM with 10% FBS), and mixed 5 times. 20 ul 10× compound solution was transferred onto assay plates. The assay plates were incubated at 37 degrees C., 5% CO2 under humidified conditions.

Hep G2 [HEPG2] cells = experiment: Anti-carbonylation assay (protein carbonyl ELISA after H2O2 treatment); assay type: cell-based; conditions: 3 mM H2O2 4 hr, replicate values
Method: The purpose of this experiment was to test […] on anti-carbonylation assay using Hep G2 [HEPG2] (ATCC#HB-8065) cell line. The carbonylation process is related to protein degeneration and is similar to oxidation and glycation. On Day 1 of the procedure, Hep G2 [HEPG2] cells were plated on 96-well cell culture plates. To do so, disk was trypsinized and the cell density was determined. The cell slurry was diluted to the required volume at a density of 625,000 cells/ml. 160 ul/well of the cell slurry was dispensed onto assay plates. (100,000 cells per well). The assay plates were incubated overnight at 37 degrees C., 5% CO2 under humidified conditions. On Day 2, the cells were treated with […] and Hydroquinone or Vitamin C as a reference. 200× compounds were prepared in 100% DMSO. Transfer 5 ul 200× compound was transferred to 95 ul completed medium (MEM with 10% FBS), and mixed 5 times. 20 ul 10× compound solution was transferred onto assay plates. The assay plates were incubated at 37 degrees C., 5% CO2 under humidified conditions. Day 3 included treatment with H2O2. 30 mM H2O2 solution was prepared and 20 ul/well of H2O2 solution was dispensed onto assay plates (H2O2 final conc. 3 mM). The assay plates were incubated for 4 hr at 37 degrees C., 5% CO2 under humidified conditions. Following the incubation, the cell culture medium was discarded and cells once washed once with PBS. 60 ul PBS was added onto assay plate, frozen at -80° C. Frozen samples were recovered 3 times. […] The liquid supernatant was then transferred to compound plate. 5 ul of each cell lysis was obtained and the protein concentration was tested. The protein concentration was adjusted to 5 μg/ml with PBS and reduced BSA (total protein conc. 10 μg/ml), and mixed 5 times. 100 uL of the 5 ug/ml samples was then transferred onto the 96-well Protein Binding Plate, and incubated in 4° C. overnight. To perform ELISA assay on Day 5, the wells were washed 3 times with 250 μL PBS per well and excess wash solution removed. 100 μL of the 0.04 mg/ml DNPH Working Solution was added and the plates were incubated for 45 minutes at room temperature in the dark. The plates were then washed 5 times with 250 μL of PBS/Ethanol (1:1, v/v) with incubation on an orbital shaker for 5 minutes. Next, the plates were washed 2 times with 250 μL of PBS. 200 μL of Blocking Solution was added per well and the plates were incubated for 2 hours at room temperature on an orbital shaker, and then washed 3 times with 250 μL of 1× Wash Buffer with thorough aspiration between each wash. 100 μL anti-DNP antibody was added and the plates were incubated for 1 hour at room temperature on an orbital shaker. Next, the strip wells were washed 3 times (1× wash buffer), 100 μL of the diluted HRP conjugated secondary antibody was added to all wells and plates were incubated for 1 hour at room temperature on an orbital shaker. The strip wells were then washed 5 times (1× wash buffer). The Substrate Solution was warmed to room temperature and 100 μL of Substrate Solution was added to each well, 5 20 min. The enzyme reaction was stopped by adding 100 μL of Stop Solution to each well. […] Data Process included: • Signal=Sample 450 nm Signal-10 ug/ml Reduced BSA Signal • Protein Carbonyl Conc. (PCC)=(Signal-Y intercept)/Slope • % Inh=(Max PCC-Sample PCC)/(Max PCC-Min PCC)×100 • Max PCC was obtained from the cells treated with H2O2 • Min PCC was obtained from none treated cells • IC50 was calculated using GraphPad Prism V5.0 software

Structure (SMILES)	IC50 [1]	Carbonylation inhibition (Hep G2 [HEPG2] cells; 33 ug/ml)	Carbonylation inhibition (Hep G2 [HEPG2] cells; 100 ug/ml)	Carbonylation inhibition (Hep G2 [HEPG2] cells; 300 ug/ml)	inhibition at 33 µg/mL (Hep G2 [HEPG2] cells; Homo sapiens, HepG2, 4 h, 33 ug/ml)	inhibition at 100 µg/mL (Hep G2 [HEPG2] cells; Homo sapiens, HepG2, 4 h, 100 ug/ml)
Oc1ccc(O)cc1 [Hydroquinone]	8.44 µg/mL (≈ 76.7 µM)	–	–	–	–	–
O=C1O[C@H]([C@@H](O)CO)C(O)=C1O [Vit. C, Vitamin C]	–	28.6%	64.6%	49.1% and 76.2%	33.5%	46.1%
